Assay results reported in PubChem BioAssay (NCI).
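Five compound concentrations were applied to cells in 96-well plates for 48 hours; endpoints were derived by simple linear interpolation of the resulting dose-response curve. The concentration for full growth arrest is given as TGI.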 Where a SMILES comes first, the peptide text is derived from it. The star is where a group is joined. Cbz = O=C(OCc1ccccc1)*; Boc = CC(C)(C)OC(=O)*; OSu = O=C1CCC(=O)N1O*; Bn = c1ccc(C*)cc1

What was measured:
Test in all cases: NCI tumour cell line growth inhibition, 48 h
A549 NSCLC = system: A549 NSCLC
CCRF-CEM leukemia = system: CCRF-CEM leukemia
DU-145 prostate = system: DU-145 prostate
HOP-92 NSCLC = system: HOP-92 NSCLC
IGROV1 ovarian = system: IGROV1 ovarian
MALME-3M melanoma = system: MALME-3M melanoma
MDA-N = system: MDA-N
MOLT-4 leukemia = system: MOLT-4 leukemia
OVCAR-4 ovarian = system: OVCAR-4 ovarian
SF-539 CNS = system: SF-539 CNS
SR leukemia = system: SR leukemia
HL-60(TB) leukemia = system: HL-60(TB) leukemia

SMILES	TGI (A549 NSCLC) [µM]	TGI (CCRF-CEM leukemia) [µM]	TGI (DU-145 prostate) [µM]	TGI (HOP-92 NSCLC) [µM]	TGI (IGROV1 ovarian) [µM]	TGI (MALME-3M melanoma) [µM]	TGI (MDA-N) [µM]	TGI (MOLT-4 leukemia) [µM]	TGI (OVCAR-4 ovarian) [µM]	TGI (SF-539 CNS) [µM]	TGI (SR leukemia) [µM]	TGI (HL-60(TB) leukemia) [µM]
CSc1nc(C)c2c(n1)N(c1ccc(Cl)cc1)CC2	> 100	> 100	> 100	> 100	> 100	> 100	> 100	> 100	> 100	> 100	> 100	–
CC(C)[C@@H]1NC(=O)[C@@H]2N=C(O[C@H]2C)[C@H](C(C)C)NC(=O)C2N=C1O[C@H]2C	> 100	> 100	> 100	> 100	> 100	> 100	> 100	> 100	> 100	> 100	> 100	> 100
CC(NNC(=O)c1ccncc1)c1ccc(Cl)cc1Cl (configuration not stated)	> 100	> 100	> 100	> 100	> 100	> 100	> 100	> 100	> 100	> 100	> 100	> 100
CCc1cc2c(c3c1CCCC3=O)CC1(C2)Cc2cc(CC)c3c(c2C1)C(=O)CCC3	> 100	> 100	> 100	> 100	> 100	> 100	> 100	> 100	> 100	> 100	75.1	> 100
C#CCOC(=O)C(=[N+]=[N-])C(=O)CC(C)C	> 10	> 10	> 10	> 10	> 10	> 10	> 10	> 10	> 10	> 10	> 10	> 10
CCCCCCCCCCCCC1N=C(N)N2CCCC2=C1C(=O)OC (configuration not stated)	36.2	3.89	21.4	10.3	7.94	3.64	4.72	4.22	5.86	13.2	> 100	–
C/C(Nc1ccc(Cl)cc1)=C1/CCOC1=O	> 49	> 100	> 100	> 100	> 100	> 100	> 100	> 76.5	> 100	> 100	> 100	> 100
CC(=O)NN(c1ccccc1)C1CCN(c2ccccc2)N1C(C)=O (configuration not stated)	> 10	> 10	> 10	–	> 10	> 10	> 10	> 10	> 10	> 10	> 10	> 10
Cc1ccc2nc(C(=O)O)c(=O)[nH]c2c1	> 100	> 100	> 100	> 100	> 100	> 100	> 100	> 100	> 100	> 100	> 100	> 100
CCC1CN2CCc3c([nH]c4ccccc34)[C@@](C(=O)OC)(c3cc4c(cc3OC)N(C)C3C(O)(C(=O)OC)C(C(=O)OC)C5(CC)C=CCN6CCC43C65)C[C@@H](C2)[C@@H]1C(C)(C)C (some centres not stated)	> 10	> 5.53	9.32	8.19	> 10	2.95	0.424	8.12	> 10	2.31	> 6.41	1.23
Clc1cc2ncn(C3CCCCO3)c2cc1Cl (configuration not stated)	> 100	> 100	> 100	–	> 100	> 100	> 100	> 100	> 100	> 100	> 100	> 100
Oc1ccc(SCc2cc(O)ccc2O)cc1	> 100	> 100	> 100	> 47.2	25.6	36.2	28.6	> 52.9	18.5	12.4	> 100	> 100
CC(C)=CCc1c2c(c(O)c3c(=O)c4c(oc13)-c1ccc(O)cc1OC4C=C(C)C)C=CC(C)(C)O2 (configuration not stated)	24.6	15.5	27.5	20.8	27.8	34.3	27.1	22.7	24.8	32.8	16	31.7
O=S(=O)(O)c1cc(O)c(N=Nc2ccc3ccccc3c2O)c2ccccc12	52.6	> 100	31.6	> 100	32.3	9.66	> 100	97	> 100	–	> 100	> 100
c1ccc(-c2c(-c3[nH]c4ccccc4c3-c3ccccc3)[nH]c3ccccc23)cc1	13.5	14	10.8	12.2	16.3	31.2	7.46	13.3	8.78	21.3	7.84	11.1
C=CCN1C(=O)CC(=O)N(NC2=NNC3(C(=O)N2)c2ccccc2-c2ccccc23)C1=S	> 100	> 100	> 100	61.8	> 100	> 100	> 100	–	> 100	> 100	61.1	66.2
COc1ccc(CC[N+]2(C)COc3cc4oc(=O)cc(C)c4cc3C2)cc1OC (configuration not stated)	> 100	> 100	> 100	> 100	> 100	> 100	> 100	18	> 100	–	> 100	> 100
CC(C)(C)OC(=O)NC(Cc1ccc(OCc2ccccc2)cc1)C(=O)NC(CCCCNC(=O)OCc1ccccc1)C(=O)NC(CCCCNC(=O)OCc1ccccc1)C(=O)ON1C(=O)CCC1=O (configuration not stated) (Boc-Tyr(Bn)-Lys(Cbz)-Lys(Cbz)-OSu; configuration not given here)	> 100	> 100	> 100	> 100	> 100	> 100	45.4	> 100	> 100	–	> 100	–
